Patent US10981926B2 (Janssen Pharmaceutica NV, priority 2016, dated 2021)

Experiments:
Assay type in all cases: cell-based
[1] = target: T1, F876L mutant Androgen Receptor (AR-F876L) (Homo sapiens (Human), UniProt P10275, F877L); experiment: LNCaP-AR-F876L ANT reporter assay (antagonist mode); settings: for Emax: read-out: LNCaP-AR-F876L ANT MAX % Inh; for IC50: pIC50 = −Log10(IC50 in Molar), read-out: LNCaP-AR-F876L ANT pIC50 (converted)
[2] = target: T2, wild-type Androgen Receptor (AR-wt) (Homo sapiens (Human), UniProt P10275); experiment: LNCaP-AR-wt ANT reporter assay (antagonist mode); settings: for Emax: read-out: LNCaP-AR-wt ANT MAX % Inh; for IC50: pIC50 = −Log10(IC50 in Molar), read-out: LNCaP-AR-wt ANT pIC50 (converted)
[3] = target: T1, F876L mutant Androgen Receptor (AR-F876L); experiment: LNCaP-AR-F876L AG reporter assay (agonist mode); settings: for Emax: read-out: LNCaP-AR-F876L AG MAX % Stim; for EC50: pEC50 = −Log10(EC50 in Molar), read-out: LNCaP-AR-F876L AG pEC50 (converted)
[4] = target: T2, wild-type Androgen Receptor (AR-wt); experiment: LNCaP-AR-wt AG reporter assay (agonist mode); settings: for Emax: read-out: LNCaP-AR-wt AG MAX % Stim; for EC50: pEC50 = −Log10(EC50 in Molar), read-out: LNCaP-AR-wt AG pEC50 (converted)
[5] = antagonist mode, maximum % inhibition of R1881 control response over tested concentration range
[6] = agonist mode, maximum % stimulation over tested concentration range
[7] = maximum % inhibition of R1881 control response over the tested concentration range
[8] = maximum % stimulation (agonist response) over the tested concentration range

T1 sequence (P10275 whole entry F877L): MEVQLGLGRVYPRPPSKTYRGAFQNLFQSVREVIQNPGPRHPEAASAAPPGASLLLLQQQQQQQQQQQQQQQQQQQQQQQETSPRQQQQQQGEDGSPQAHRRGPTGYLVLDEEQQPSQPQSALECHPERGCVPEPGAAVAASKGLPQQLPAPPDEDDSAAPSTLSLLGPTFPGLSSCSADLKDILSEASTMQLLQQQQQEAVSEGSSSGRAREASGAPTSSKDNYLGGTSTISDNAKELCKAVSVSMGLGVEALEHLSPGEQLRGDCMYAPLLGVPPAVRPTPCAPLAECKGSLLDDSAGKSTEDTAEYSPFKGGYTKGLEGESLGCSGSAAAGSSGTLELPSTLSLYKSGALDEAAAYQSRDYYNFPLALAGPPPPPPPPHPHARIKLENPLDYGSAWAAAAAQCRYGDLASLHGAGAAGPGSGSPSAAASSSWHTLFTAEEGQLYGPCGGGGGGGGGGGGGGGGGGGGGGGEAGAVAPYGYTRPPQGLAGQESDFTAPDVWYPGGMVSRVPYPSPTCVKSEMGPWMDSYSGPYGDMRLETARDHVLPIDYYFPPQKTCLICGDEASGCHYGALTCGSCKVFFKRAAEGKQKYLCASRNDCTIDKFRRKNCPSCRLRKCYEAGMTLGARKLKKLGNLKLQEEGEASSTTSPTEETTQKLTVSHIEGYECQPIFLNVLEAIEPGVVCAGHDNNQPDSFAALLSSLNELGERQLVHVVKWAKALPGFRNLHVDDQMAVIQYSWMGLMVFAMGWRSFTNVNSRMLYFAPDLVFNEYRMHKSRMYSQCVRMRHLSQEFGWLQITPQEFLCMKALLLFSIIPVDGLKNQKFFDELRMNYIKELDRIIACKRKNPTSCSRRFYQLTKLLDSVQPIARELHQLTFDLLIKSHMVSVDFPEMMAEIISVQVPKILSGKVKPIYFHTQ
T2 sequence (P10275 whole entry): as the sequence (P10275 whole entry F877L) above, with L877F counted along it

SMILES | Emax [1, 5] | IC50 ([1]; antagonist mode) | Emax [2, 5] | IC50 ([2]; antagonist mode) | Emax [3, 6] | EC50 ([3]; agonist mode) | Emax [4, 6] | EC50 ([4]; agonist mode) | Emax [1, 7] | Emax [2, 7] | Emax [3, 8] | Emax [4, 8]
CN1CCC(NC(=O)c2ccc(N3C(=S)N(c4cnc(C#N)c(C(F)(F)F)c4)C(=O)C34CCC4)cc2)C1 (centres unmarked) [Cpd 192, 4-[6-[6-cyano-5-(trifluoromethyl)-3-pyridyl]-5-oxo-7-thioxo-6,8-diazaspiro[3.4]octan-8-yl]-N-(1-methylpyrrolidin-3-yl)benzamide] | 102% | 0.692 µM | 101% | 1.58 µM | 0.1% | > 15.1 µM | 0% | > 15.1 µM | – | – | – | –
CN1CCc2cc(N3C(=S)N(c4cnc(C#N)c(C(F)(F)F)c4)C(=O)C34CCC4)ccc2C1 [Cpd 125, 5-[8-(2-methyl-3,4-dihydro-1H-isoquinolin-6-yl)-5-oxo-7-thioxo-6,8-diazaspiro[3.4]octan-6-yl]-3-(trifluoromethyl)pyridine-2-carbonitrile] | – | 1.58 µM | – | 2.69 µM | – | > 15.1 µM | – | > 15.1 µM | 98.1% | 99.5% | 0% | 0.6%
COc1ccc(N2C(=S)N(c3cnc(C#N)c(C(F)(F)F)c3)C(=O)C23CCC3)cn1 [Cpd 15, 5-[8-(6-methoxy-3-pyridyl)-5-oxo-7-thioxo-6,8-diazaspiro[3.4]octan-6-yl]-3-(trifluoromethyl)pyridine-2-carbonitrile] | – | 0.191 µM | – | 0.24 µM | – | > 15.1 µM | – | > 15.1 µM | 100% | 101% | 1.1% | -0.1%
CC(C)(C)OC(=O)N1CCC(n2cc3cc(N4C(=S)N(c5cnc(C#N)c(C(F)(F)F)c5)C(=O)C45CCC5)ccc3n2)CC1 [Cpd 121, tert-butyl 4-[5-[6-[6-cyano-5-(trifluoromethyl)-3-pyridyl]-5-oxo-7-thioxo-6,8-diazaspiro[3.4]octan-8-yl]indazol-2-yl]piperidine-1-carboxylate] | – | 0.129 µM | – | 0.138 µM | – | > 15.1 µM | – | > 15.1 µM | 99.8% | 97.9% | 0.5% | -0.1%

Second part, the compound after the results:

Emax [1, 5] | IC50 ([1]; antagonist mode) | Emax [2, 5] | IC50 ([2]; antagonist mode) | Emax [3, 6] | EC50 ([3]; agonist mode) | Emax [4, 6] | EC50 ([4]; agonist mode) | Emax [1, 7] | Emax [2, 7] | Emax [3, 8] | Emax [4, 8] | SMILES
100% | 0.468 µM | 104% | 0.832 µM | 0.1% | > 15.1 µM | 0.4% | > 15.1 µM | – | – | – | – | CN1CCC(Cc2ccc(N3C(=S)N(c4cnc(C#N)c(C(F)(F)F)c4)C(=O)C34CCC4)cc2)CC1 [Cpd 237, 5-[8-[4-[(1-methyl-4-piperidyl)methyl]phenyl]-5-oxo-7-thioxo-6,8-diazaspiro[3.4]octan-6-yl]-3-(trifluoromethyl)pyridine-2-carbonitrile]
102% | 0.562 µM | 102% | 0.562 µM | 0.1% | > 15.1 µM | 0.1% | > 15.1 µM | – | – | – | – | CC(=O)N1CCC(n2cc3ccc(N4C(=S)N(c5cnc(C#N)c(C(F)(F)F)c5)C(=O)C45CCC5)cc3n2)CC1 [Cpd 198, 5-[8-[2-(1-acetyl-4-piperidyl)indazol-6-yl]-5-oxo-7-thioxo-6,8-diazaspiro[3.4]octan-6-yl]-3-(trifluoromethyl)pyridine-2-carbonitrile]
101% | 0.24 µM | 101% | 0.347 µM | 0.1% | > 15.1 µM | 0% | > 15.1 µM | – | – | – | – | COc1cc(N2C(=O)C3(CCC3)N(c3ccc4nn(C5CCN(C)CC5)cc4c3)C2=S)cnc1C#N [Cpd 215, 3-methoxy-5-[8-[2-(1-methyl-4-piperidyl)indazol-5-yl]-5-oxo-7-thioxo-6,8-diazaspiro[3.4]octan-6-yl]pyridine-2-carbonitrile]
